The values below come from US12679843B2, “Pyrrolopyrimidine amines as complement inhibitors” (BioCryst Pharmaceuticals, Inc., priority 2020, dated 2026).

Molecules are shown by their SMILES.

Factor D, sequence (P00746 26-253): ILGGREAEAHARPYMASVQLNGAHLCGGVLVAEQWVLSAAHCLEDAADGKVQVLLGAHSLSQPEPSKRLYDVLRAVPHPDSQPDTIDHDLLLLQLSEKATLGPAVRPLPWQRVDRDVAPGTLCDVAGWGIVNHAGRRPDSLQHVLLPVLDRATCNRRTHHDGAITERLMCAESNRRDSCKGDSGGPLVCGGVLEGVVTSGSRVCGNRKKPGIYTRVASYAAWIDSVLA

The assay has as its target Factor D (Homo sapiens, UniProt P00746). The assay can be described thus: Factor D esterolytic assay (Z-Lys-SBzl thioester substrate, DTNB, 405 nm). It is filed as biochemical. Particulars: substrate Z-Lys-SBzl 1.29 mM, 100 mM HEPES, 500 mM NaCl, pH 7.5, 10% DMSO, tested a minimum of three times. The essentials:
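Human Factor D hydrolysis of Z-Lys-SBzl (1.29 mM) monitored at 405 nm via DTNB thiol detection for 600 s, 690 nm background subtracted. Buffer 100 mM HEPES, 500 mM NaCl, pH 7.5, 10% DMSO; substrate added immediately or after room-temperature preincubation. IC50 from percent inhibition of rate, at least three tests.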
For the compound `COC(=O)c1ccc2c3c(N)ncnc3n(CC(=O)N3[C@@H]4C[C@@H]4C[C@H]3C(=O)Nc3cccc(Br)n3)c2c1` [Compound 41f, methyl 4-amino-9-(2-((1R,3S,5R)-3-((6-bromopyridin-2-yl)carbamoyl)-2-azabicyclo[3.1.0]hexan-2-yl)-2-oxoethyl)-9H-pyrimido[4,5-b]indole-7-carboxylate], the IC50 is below 100 nM.
As for `Cc1cc(C(F)(F)F)cc2c3c(N)ncnc3n(CC(=O)N3[C@@H]4C[C@@H]4C[C@H]3C(=O)Nc3cccc(Br)n3)c12` [Compound 194a, (1R,3S,5R)-2-(2-(4-amino-8-methyl-6-(trifluoromethyl)-9H-pyrimido[4,5-b]indol-9-yl)acetyl)-N-(6-bromopyridin-2-yl)-2-azabicyclo[3.1.0]hexane-3-carboxamide], the figure is below 100 nM.
Consider `Cc1cc(C(F)(F)F)cc2c3c(N)ncnc3n(CC(=O)N3[C@H](C(=O)Nc4cccc(Cl)n4)C[C@@]4(C)C[C@@H]34)c12` [Compound 287a, (1R,3S,5R)-2-(2-(4-amino-8-methyl-6-(trifluoromethyl)-9H-pyrimido[4,5-b]indol-9-yl)acetyl)-N-(6-chloropyridin-2-yl)-5-methyl-2-azabicyclo[3.1.0]hexane-3-carboxamide], for which the IC50 was below 100 nM.
Consider `CC(=O)Nc1ccc2c(c1)c1c(N)ncnc1n2CC(=O)N1[C@H](C(=O)Nc2cccc(Br)n2)C[C@@]2(C)C[C@@H]12` [Compound 185a, (1R,3S,5R)-2-(2-(6-acetamido-4-amino-9H-pyrimido[4,5-b]indol-9-yl)acetyl)-N-(6-bromopyridin-2-yl)-5-methyl-2-azabicyclo[3.1.0]hexane-3-carboxamide], for which the IC50 was below 100 nM.
Regarding `COc1cccc2c3c(N)ncnc3n(CC(=O)N3[C@H](C(=O)Nc4cccc(Br)n4)C[C@@]4(C)C[C@@H]34)c12` [Compound 173a, (1R,3S,5R)-2-(2-(4-amino-8-methoxy-9H-pyrimido[4,5-b]indol-9-yl)acetyl)-N-(6-bromopyridin-2-yl)-5-methyl-2-azabicyclo[3.1.0]hexane-3-carboxamide], the IC50 was below 100 nM.
On to `Nc1c(C(=O)O)cnc2c1ccn2CC(=O)N1[C@@H]2C[C@@H]2C[C@H]1C(=O)Nc1cccc(Br)n1` [Compound 155f, 4-amino-1-(2-((1R,3S,5R)-3-((6-bromopyridin-2-yl)carbamoyl)-2-azabicyclo[3.1.0]hexan-2-yl)-2-oxoethyl)-1H-pyrrolo[2,3-b]pyridine-5-carboxylic acid], for which the IC50 is above 1000 nM.
Turning to `Cc1cc(C(F)(F)F)cc2c3c(N)ncnc3n(CC(=O)N3[C@H](C(=O)Nc4cncc(Br)n4)C[C@@]4(C)C[C@@H]34)c12` [Compound 296a, (1R,3S,5R)-2-(2-(4-amino-8-methyl-6-(trifluoromethyl)-9H-pyrimido[4,5-b]indol-9-yl)acetyl)-N-(6-bromopyrazin-2-yl)-5-methyl-2-azabicyclo[3.1.0]hexane-3-carboxamide], the IC50 is below 100 nM.
`C[C@@]12C[C@@H](C(=O)Nc3cccc(Br)n3)N(C(=O)Cn3c4ncnc(N)c4c4cccc(C(=O)O)c43)[C@@H]1C2` [Compound 232a, 4-amino-9-(2-((1R,3S,5R)-3-((6-bromopyridin-2-yl)carbamoyl)-5-methyl-2-azabicyclo[3.1.0]hexan-2-yl)-2-oxoethyl)-9H-pyrimido[4,5-b]indole-8-carboxylic acid]: the IC50 is below 100 nM.
With `COC(=O)c1cn(CC(=O)N2C[C@H](F)C[C@H]2C(=O)NCc2cccc(Cl)c2F)c2ncnc(N)c12` [Compound 146a, methyl 4-amino-7-(2-((2S,4R)-2-((3-chloro-2-fluorobenzyl)carbamoyl)-4-fluoropyrrolidin-1-yl)-2-oxoethyl)-7H-pyrrolo[2,3-d]pyrimidine-5-carboxylate], the IC50 was above 1000 nM.
`COc1cc2c3c(N)ncnc3n(CC(=O)N3[C@@H]4C[C@@H]4C[C@H]3C(=O)Nc3cccc(Br)n3)c2cc1F` [Compound 330f, (1R,3S,5R)-2-(2-(4-amino-7-fluoro-6-methoxy-9H-pyrimido[4,5-b]indol-9-yl)acetyl)-N-(6-bromopyridin-2-yl)-2-azabicyclo[3.1.0]hexane-3-carboxamide]: the IC50 was below 100 nM.
As for `C[C@@]12C[C@@H](C(=O)Nc3cccc(Br)n3)N(C(=O)Cn3c4cccc(C(=O)O)c4c4c(N)ncnc43)[C@@H]1C2` [Compound 222a, 4-amino-9-(2-((1R,3S,5R)-3-((6-bromopyridin-2-yl)carbamoyl)-5-methyl-2-azabicyclo[3.1.0]hexan-2-yl)-2-oxoethyl)-9H-pyrimido[4,5-b]indole-5-carboxylic acid], the figure is above 1000 nM; as for `COC(=O)c1ccc2c(c1)c1c(N)ncnc1n2CC(=O)N1[C@@H]2C[C@@H]2C[C@H]1C(=O)Nc1cccc(Br)n1` [Compound 39f, methyl 4-amino-9-(2-((1R,3S,5R)-3-((6-bromopyridin-2-yl)carbamoyl)-2-azabicyclo[3.1.0]hexan-2-yl)-2-oxoethyl)-9H-pyrimido[4,5-b]indole-6-carboxylate], below 100 nM.
Regarding `Nc1ncnc2c1c1cccc(Br)c1n2CC(=O)N1[C@@H]2C[C@@H]2C[C@H]1C(=O)Nc1cccc(Br)n1` [Compound 35f, (1R,3S,5R)-2-(2-(4-amino-8-bromo-9H-pyrimido[4,5-b]indol-9-yl)acetyl)-N-(6-bromopyridin-2-yl)-2-azabicyclo[3.1.0]hexane-3-carboxamide], the IC50 is below 100 nM.
For `Nc1nccc2c1ccn2CC(=O)N1[C@@H]2C[C@@H]2C[C@H]1C(=O)NCc1cccc(Cl)c1F` [Compound 88f, (1R,3S,5R)-2-(2-(4-amino-1H-pyrrolo[3,2-c]pyridin-1-yl)acetyl)-N-(3-chloro-2-fluorobenzyl)-2-azabicyclo[3.1.0]hexane-3-carboxamide], the IC50 was above 1000 nM.
With `Cc1ccc(Br)nc1NC(=O)[C@@H]1C[C@@]2(C)C[C@H]2N1C(=O)Cn1ccc2c(N)ncnc21` [Compound 74a, (1R,3S,5R)-2-(2-(4-amino-7H-pyrrolo[2,3-d]pyrimidin-7-yl)acetyl)-N-(6-bromo-3-methylpyridin-2-yl)-5-methyl-2-azabicyclo[3.1.0]hexane-3-carboxamide], the IC50 fell in the range of 100 to 1000 nM.
On to `Cc1cc(-c2ccoc2)cc2c3c(N)ncnc3n(CC(=O)N3[C@H](C(=O)Nc4cccc(Br)n4)C[C@@]4(C)C[C@@H]34)c12` [Compound 353a, (1R,3S,5R)-2-(2-(4-amino-6-(furan-3-yl)-8-methyl-9H-pyrimido[4,5-b]indol-9-yl)acetyl)-N-(6-bromopyridin-2-yl)-5-methyl-2-azabicyclo[3.1.0]hexane-3-carboxamide], for which the IC50 is below 100 nM.
As for `COCc1ccc2c(c1)c1c(N)ncnc1n2CC(=O)N1[C@H](C(=O)Nc2cccc(Br)n2)C[C@@]2(C)C[C@@H]12` [Compound 340a, (1R,3S,5R)-2-(2-(4-amino-6-(methoxymethyl)-9H-pyrimido[4,5-b]indol-9-yl)acetyl)-N-(6-bromopyridin-2-yl)-5-methyl-2-azabicyclo[3.1.0]hexane-3-carboxamide], the figure is below 100 nM.
